Laboratory results as given in PubChem BioAssay AID179 (DTP/NCI, 2004).
Calls of active or inactive are those of the source.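 How the source made its calls: active means compounds giving half or more protection of infected cells from virus-caused growth loss, again on retest; inactive means the rest.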 Where a SMILES comes first, the peptide text is derived from it. [ ]: non-standard residue; d: D form. The star is where a group is joined. Phe(4-NO2) = N[CH](Cc1ccc([N+](=O)[O-])cc1)C(=O)O; Boc = CC(C)(C)OC(=O)*; OtBu = CC(C)(C)O*

Test system: CEM cells HIV-1 protection, formazan growth assay
Test: NCI AIDS Antiviral Assay
Details: for IC50: measured here: growth of uninfected CEM cells
In short: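 Screen of anti-HIV-1 activity in human CEM cells using a formazan-based growth measurement at five drug concentrations. Hits with 50% or greater protection were repeated, and confirmation required reproducible complete protection.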

Compound | EC50 | IC50 | outcome
CCC1Sc2cc(OC)cc(N)c2NC1=O (configuration not stated) | > 200 µM | > 200 µM | –
COC12OCCN(C)C1=CC(=O)C1N=NCC12 (configuration not stated) | – | – | inactive
CNC(=O)CNC(=O)c1ccccc1SC(=O)CCCC[n+]1ccccc1 | 1.95 µM | 22.9 µM | –
CCOC(=O)CC(C)CCO (configuration not stated) | > 1550 µM | > 1550 µM | –
Cc1cc(-c2ccccc2)oc(=O)c1NC(=O)c1ccccc1 | > 200 µM | 97.7 µM | –
COC(=O)CNC(=O)/C=C/[C@H](O[Si](C)(C)C(C)(C)C)[C@H](/C=C/C(=O)NCC(=O)OC)O[Si](C)(C)C(C)(C)C | > 25.1 µM | > 25.1 µM | –
Cc1nn(C(=O)Cc2ccccc2)c2c1C(c1ccc(O)cc1)SC(N)=N2 (configuration not stated) | 83.2 µM | > 200 µM | –
CCOC(=O)CC[C@H](NC(=O)c1nc[nH]c1[N+](=O)[O-])C(=O)OCC | > 200 µM | > 200 µM | –
Cc1cc(C)c(C(=O)O)c(SSc2cc(C)cc(C)c2C(=O)O)c1 | 46.8 µM | 123 µM | –
CCCCCCCCCCCOc1ccc(C(=O)C(=O)c2ccc(OCCCCCCCCCCC)c(OCCCCCCCCCCC)c2)cc1OCCCCCCCCCCC | > 10.5 µM | > 10.5 µM | –
CN1CC(=O)Nc2c(ncn2C2OC(CO)C(O)C2O)C1=O (configuration not stated) | > 229 µM | > 229 µM | –
C=C(C(=O)O)C1CC[C@@]2(C)CC(O)CC(=C)C2C1 (some centres not stated) | > 200 µM | > 200 µM | –
CC(=O)OCC(OC(C)=O)C(OC(C)=O)C1OC(Oc2ccccc2)C(OC(C)=O)C1OC(C)=O (configuration not stated) | > 200 µM | > 200 µM | –
COc1cccc2c1CCc1c(-c3ccc(F)cc3)cc(-c3ccc4ccccc4n3)nc1-2 | > 200 µM | > 200 µM | –
N#CC(C(=S)Nc1ccccc1)=C1Nc2ccccc2N1 | > 200 µM | > 200 µM | –
COC(=O)NC(C(F)(F)F)(C(F)(F)F)P1(=O)OCCCO1 | > 200 µM | 63.1 µM | –
CC(C)OC(=O)c1ccc(CCC2=CC(=O)C(Br)=CC2=O)cc1 | > 200 µM | 8.71 µM | –
COCn1cc(C2=C(C)C(=O)C(C)=C(C)C2=O)cn1 | > 200 µM | 6.03 µM | –
CC(=O)n1nc(C)c(-c2onc3ccc(Cl)cc23)c1C | 40.7 µM | 44.7 µM | –
O=[N+]([O-])c1ccc2[nH]c(=S)[nH]c(=S)c2c1 | > 200 µM | – | –
CC(C)=CCCC(C)CCN(O)CC(CO)OC(CO)n1cc(C)c(=O)[nH]c1=O (configuration not stated) | > 200 µM | 135 µM | –

Compound | EC50 | IC50 | outcome
CC1(C)OCC(C2OC3OC(C)(C)OC3C2=O)O1 (configuration not stated) | – | – | inactive
Nc1nc([O-])c([I+]c2ccccc2)c(=O)[nH]1 | > 200 µM | > 200 µM | –
[O-]c1c2c(nn1-c1ccccc1)c1ccccc1c[n+]2Cc1ccccc1 | – | – | inactive
O=[N+]([O-])c1ccc(NS(=O)(=O)C(F)(F)F)cc1 | > 200 µM | > 200 µM | –
O=C1c2ccccc2C(=O)N1CCCSCC(CO)SCCCN1C(=O)c2ccccc2C1=O (configuration not stated) | > 200 µM | > 200 µM | –
CCOC(=O)C(=O)Nc1cc(Cl)c(Cl)cc1Cl | > 63.1 µM | > 63.1 µM | –
Cc1cc(=O)n2c(nc3cc([N+](=O)[O-])ccc32)s1 | > 200 µM | 186 µM | –
Cc1ccc(NC(=O)CC2C(=O)Nc3ccccc3S2(=O)=O)cc1C (configuration not stated) | > 10.5 µM | > 10.5 µM | –
CC[C@H](C)N(CCN)C(=O)c1cc2ccccc2c(-c2ccccc2Cl)n1 | – | – | inactive
Clc1cccc(Sc2ccccc2)c1 | > 23.4 µM | > 23.4 µM | –
COc1ccc(C2=NOP(c3ccccc3)(c3ccccc3)(c3ccccc3)C2)cc1 | > 105 µM | 0.661 µM | –
COc1ccc(-c2coc3c4c(ccc3c2=O)OCO4)cc1OC | – | – | inactive
O=C(N(O)c1ccccc1Cl)C(O)(c1ccccc1)c1ccccc1 | > 20 µM | > 20 µM | –
N#Cc1c(-c2ccccc2)c(-c2ccccc2)cc2c(=O)c3ccc(Cl)cc3[nH]c12 | > 33.1 µM | > 33.1 µM | –
N#C/C(N)=C(\C#N)N=CNc1ccccc1N | > 200 µM | > 200 µM | –
N.N.N.N.[Co+3].[O-][Cl+3]([O-])([O-])[O-].[OH3+].[OH3+] | – | – | inactive
Cc1cc(=O)n2cn[nH]c2n1 | > 200 µM | > 200 µM | –
CCCCOP(=O)(/N=C/OC(C)C)OCCCC | > 200 µM | > 200 µM | –
CCOC(=O)Cc1nc(Nc2ccc(F)c(Cl)c2)c2c3c(sc2n1)CCCC3 | > 12.3 µM | > 12.3 µM | –
CCC(C)N1CN(c2ccccc2)C2(CCN(CC3COc4ccccc4O3)CC2)C1=O (configuration not stated) | > 200 µM | 29.5 µM | –
CC(=O)NC(CCC(=O)OC(C)(C)C)C(=O)NC(CCC(=O)OC(C)(C)C)C(=O)NC(Cc1ccc([N+](=O)[O-])cc1)C(=O)NC(CCCCNC(=O)OC(C)(C)C)C(=O)NC(CCCCNC(=O)OC(C)(C)C)C(=O)NCC(=O)O (configuration not stated) (Ac-E(OtBu)E(OtBu)[Phe(4-NO2)]K(Boc)K(Boc)G-OH; configuration not given here) | > 200 µM | > 200 µM | –

Compound | EC50 | IC50 | outcome
COc1cc2c3c(c1)nnn3C(=O)C(c1ccccc1)S2 (configuration not stated) | > 200 µM | > 200 µM | –
CCCCCCCCCCCCCCCCOC1OC(COC(C)=O)C(OC(C)=O)C(OC(C)=O)C1OC(C)=O (configuration not stated) | > 12.6 µM | > 12.6 µM | –
CC1(C)CCC[C@@]2(C)C1CCC1(C)C(CCc3ccoc3)/C(=C/OS(=O)(=O)O)CCC12 (some centres not stated) (tested in a mixture with another compound) | > 145 µM | > 145 µM | –
COC(C)(C)C/C=C/C(C)=C/C=C/C(C)=C\C=C\C(C)=C\C=C\C=C(C)\C=C\C=C(C)\C=C\C=C(C)\C=C\CC(C)(C)OC | – | – | inactive
O=C1NC(Cc2ccc(Cl)cc2)C(=O)N2CCCC12 (configuration not stated) | > 200 µM | 95.5 µM | –
Cc1c(C(=O)N(CCO)CCO)[n+](=O)c2ccccc2n1[O-] | > 575 µM | > 575 µM | –
O=c1c2c([nH]c3c1ccc1[nH]c4c(c(=O)c13)CCCC4)CCCC2 | > 42.7 µM | > 42.7 µM | –
O=[N+]([O-])c1nccn1CCCN=c1c2ccccc2n(O)c2ccccc12 | > 200 µM | 46.8 µM | –
COC(=O)C1Cc2cc3c(cc2C1=O)CCCC3 (configuration not stated) | > 1000 µM | 66.1 µM | –
O=[N+]([O-])c1cc2cnn(CO)c2cc1[N+](=O)[O-] | > 200 µM | 16.6 µM | –
CC(C)(CCC(C)(C)N1OC1c1ccccc1)N1OC1c1ccccc1 (configuration not stated) | > 200 µM | 19.1 µM | –
COC(=O)c1c/c(=N\NC(=O)CC(=O)Nc2ccc(C)cc2)c2ccccc2o1 | > 631 µM | > 631 µM | –
CC(C)(C)C(=O)/C=C/c1ccc(C#N)cc1 | – | 38.9 µM | inactive
CC(=O)NNc1nc(C)c(C(/C=C/c2ccc3c(c2)OCO3)=N/NC(=O)c2ccncc2)s1 | > 50.1 µM | > 50.1 µM | –
O=C(/C=C(\S/C=C(/c1ccccc1)N1CCn2c(C(=O)c3ccccc3)c(C(=O)c3ccccc3)c(C(=O)c3ccccc3)c21)C(=O)c1ccccc1)c1ccccc1 | > 200 µM | 37.2 µM | –
O=C(O)C(Cc1ccc(O)cn1)NC(=O)C(F)(F)F (configuration not stated) | > 200 µM | > 200 µM | –
NCCCNC(=O)c1csc(NC(=O)c2csc(NC(=O)CCCN)n2)n1 | > 437 µM | 174 µM | –
[O]=[W](=[O])([OH])[OH] | – | – | inactive
O=C(CCc1nnc2s/c(=C\c3ccc([N+](=O)[O-])cc3)c(=O)n12)Nc1ccc(Cl)c(Cl)c1 | > 69.2 µM | 38.9 µM | –
Cc1cc2c(c(C#N)c1C)NC(=O)CN=C2c1ccccc1F | 70.8 µM | > 200 µM | –
S=C(NCCNC(=S)[S][Sn]([c]1ccccc1)([c]1ccccc1)[c]1ccccc1)[S][Sn]([c]1ccccc1)([c]1ccccc1)[c]1ccccc1 | > 0.1 µM | 0.0646 µM | –

Compound | EC50 | IC50 | outcome
Cc1cc2nc3c(C(O)C(O)C(O)CO)nn(-c4ccc(F)cc4)c3nc2cc1C (configuration not stated) | 89.1 µM | > 200 µM | –
CC(=O)NS(=O)(=O)c1ccc(-n2sc3ccccc3c2=O)cc1 | 12.3 µM | 30.9 µM | –
C[N+](C)(C)CC(=O)N/N=C/c1oc(-c2cccc([N+](=O)[O-])c2)c(-c2cccc([N+](=O)[O-])c2)c1[N+](=O)[O-] | > 9.77 µM | > 9.77 µM | –
CCCC(=O)NC(Nc1ccc(S(=O)(=O)Nc2nc(C)cc(C)n2)cc1)(C(F)(F)F)C(F)(F)F | > 200 µM | > 200 µM | –
Cc1c2nc3ccccc3sc-2cc(=O)c1C | > 21.4 µM | > 21.4 µM | –
CC(=O)O[C@@H]1[C@H](OC(=O)CC(C)C)c2c(ccc3ccc(=O)oc23)OC1(C)C | 13.5 µM | 53.7 µM | –
COc1cc(C)c(Br)c2ccc(Br)c(O)c12 | > 200 µM | > 200 µM | –
Cc1ccc(S(=O)(=O)Nn2c(O)c(C#N)c(-c3ccc(Cl)cc3)c(C#N)c2=O)cc1 | > 200 µM | > 200 µM | –
NC(N)=NS(=O)(=O)c1ccc(NC(=O)c2cccc3c(NNc4ccc(S(N)(=O)=O)cc4)c4ccccc4nc23)cc1 | > 200 µM | 28.2 µM | –
C=CCN1CCC23c4c5ccc(O)c4OC2C(=NN=C2CCC4(O)C6Cc7ccc(O)c8c7C4(CCN6CC=C)C2O8)CCC3(O)C1C5 (configuration not stated) | > 200 µM | 10.5 µM | –
c1csc(-c2ccsc2-c2ccsc2)c1 | > 200 µM | 87.1 µM | –
Nc1ncnc2oc(-c3cccs3)nc12 | > 200 µM | > 200 µM | –
CC(C)CC1NC(CC(C)C)N2C(CC(C)C)N12 (configuration not stated) | > 39.8 µM | > 39.8 µM | –
O=C1C(=Cc2cccs2)C(=O)N(CCc2ccccc2)S(=O)(=O)N1CCc1ccccc1 | > 8.13 µM | > 8.13 µM | –
CC(C)=CCc1c(-c2ccc(O)cc2O)oc2c3c(cc(O)c2c1=O)OC(C)(C)C=C3 | > 17.4 µM | 13.8 µM | –
COc1ccc(/C=C(\NC(=O)c2ccccc2)C(=O)NN(C)c2ccnc3cc(Cl)ccc23)cc1OC | > 200 µM | 56.2 µM | –
CCCC(CCC)C(=O)[O-].CCCC(CCC)C(=O)[O-].CCCC(CCC)C(=O)[O-].CCCC(CCC)C(=O)[O-].[Cu+2].[Cu+2] | > 50.1 µM | 7.41 µM | –
O=C(CC(=O)Nc1ccccc1)N/N=C/c1cc(N=Nc2ccc(Br)cc2)ccc1O | > 200 µM | 1.35 µM | –
O=C([O][Bi]([c]1ccccc1)[c]1ccccc1)C(F)(F)F | > 20 µM | 15.1 µM | –
COC(=O)N1CC2CC(=O)OCC2[C@@H]1CO (some centres not stated) | > 724 µM | > 724 µM | –
